Each structure is given as a SMILES string. *1 amine or outer side, *2 acyl side, *3 side chain or, on linkers, in order; H or OH if unused. Where a SMILES comes first, the peptide text is derived from it. Bridges are numbered along the chain shown (N, C = ends). [ ]: non-standard residue; d: D form. The star is where a group is joined. ξ: configuration not given here. Phe(3-CF3) = N[C@@H](Cc1cccc(C(F)(F)F)c1)C(=O)O; Phe(4-CF3) = N[C@@H](Cc1ccc(C(F)(F)F)cc1)C(=O)O; Ala(morpholin-4-yl) = N[C@@H](CN1CCOCC1)C(=O)O; Phe(4-COOH) = N[C@@H](Cc1ccc(C(=O)O)cc1)C(=O)O; Bip = N[C@@H](Cc1ccc(-c2ccccc2)cc1)C(=O)O; Phe(3-Me) = Cc1cccc(C[C@H](N)C(=O)O)c1; γGlu = O=C(O)[C@H](CCC(=O)[*:2])N[*:1]; NH(CH2)12COOH = O=C(O)CCCCCCCCCCCCN*; NMeAEEA = CN(CCOCCOCC(=O)[*:2])[*:1]; Val(3-OH) = CC(C)(O)[C@H](N)C(=O)O; 4Pal = N[C@@H](Cc1ccncc1)C(=O)O; Cha = N[C@@H](CC1CCCCC1)C(=O)O; Ile(3ξ) = CCC(C)[C@H](N)C(=O)O; Thr(3ξ) = CC(O)[C@H](N)C(=O)O; 12Ado = NCCCCCCCCCCCC(=O)O; Carboxymethyl = O=C(O)C*; NMeA = CN[C@@H](C)C(=O)O; Orn = NCCC[C@H](N)C(=O)O; Aun = NCCCCCCCCCCC(=O)O; Dab = NCC[C@H](N)C(=O)O; Dap = NC[C@H](N)C(=O)O; AEEA = NCCOCCOCC(=O)O

The target in one experiment is T1, PD-1/PD-L1 interaction (PE-labeled human PD-L1-Ig binding to Jurkat cell line over-expressing human PD-1) (Homo sapiens, UniProt Q15116).
T1 construct: expressed in transfected cells; host or cells: Jurkat
T1 sequence (Q15116 25-288): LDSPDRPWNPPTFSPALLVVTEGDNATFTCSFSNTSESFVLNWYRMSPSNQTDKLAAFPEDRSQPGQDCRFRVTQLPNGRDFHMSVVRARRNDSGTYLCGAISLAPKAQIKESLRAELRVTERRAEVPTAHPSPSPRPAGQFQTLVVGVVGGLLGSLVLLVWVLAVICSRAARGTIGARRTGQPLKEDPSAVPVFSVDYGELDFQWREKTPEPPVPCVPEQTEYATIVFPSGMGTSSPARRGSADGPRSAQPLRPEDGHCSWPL
Nature of the experiment: Jurkat-PD-1 Cell Binding High-Content Screening Assay (CBA). As to conditions: Jurkat-hPD-1 cells, PE-labeled PD-L1-Ig 20 nM final; read-out: Jurkat HPD1 PDL1 IC50. The gist of the method:
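Jurkat cells overexpressing human PD-1 (8×10^3/well, DMEM + 10% FCS) preincubated with compound 2 h at 37 °C, then PE-labelled human PD-L1-Ig (20 nM final) for 1 h. Cells fixed in paraformaldehyde with Hoechst 33342; bound PD-L1 quantified by high-content imaging.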
By IC50 is commonly meant the concentration needed to halve the response being measured. `Cc1cccc(C[C@@H]2NC(=O)[C@H](CC(=O)O)NC(=O)[C@H](Cc3ccc(OCC(=O)O)cc3)NC(=O)[C@H](CCCNC(=N)N)NC(=O)CSC[C@@H](C(=O)N[C@@H](CCN)C(=O)NCCCCCCCCCCC(=O)O)NC(=O)[C@H](CCC(N)=O)NC(=O)[C@H](C(C)C)NC(=O)[C@H](CC3CCCCC3)NC(=O)[C@H](CCN)NC(=O)[C@@H](CC(C)C)NC(=O)[C@H](C)N(C)C(=O)[C@H](Cc3ccc(O)cc3)NC(=O)[C@H](Cc3ccc(-c4ccccc4)cc3)NC(=O)[C@H](C(C)C)NC2=O)c1` [Example 2269] ({CH2CO}-RY(Carboxymethyl)D[Phe(3-Me)]V[Bip]Y[NMeA][dL][Dab][Cha]VQC[Dab][Aun]-OH; thioether N-14): the IC50 was determined as 11.9 nM. The same measure, in the same setting: as for `Cc1cccc(C[C@@H]2NC(=O)[C@H](CC(=O)O)NC(=O)[C@H](Cc3ccc(OCC(=O)O)cc3)NC(=O)[C@H](C(C)O)NC(=O)CSC[C@@H](C(=O)N(C)CCOCCOCC(=O)NCCCCCCCCCCC(=O)O)NC(=O)[C@H](CCCN)NC(=O)[C@H](C(C)C)NC(=O)[C@H](CC3CCCCC3)NC(=O)[C@H](CCN)NC(=O)[C@@H](CC(C)C)NC(=O)[C@H](C)N(C)C(=O)[C@H](C(C)C)NC(=O)[C@H](Cc3ccc(-c4ccccc4)cc3)NC(=O)[C@H](C(C)C)NC2=O)c1` (stereo partly drawn) [Example 2219] ({CH2CO}-[Thr(3ξ)]Y(Carboxymethyl)D[Phe(3-Me)]V[Bip]V[NMeA][dL][Dab][Cha]V[Orn]C[NMeAEEA][Aun]-OH; thioether N-14), the figure is 6.2 nM; as for `CC(C)C[C@H]1NC(=O)[C@H](C)N(C)C(=O)[C@H](CCC(N)=O)NC(=O)[C@H](Cc2ccc(-c3ccccc3)cc2)NC(=O)[C@H](Cc2ccc(C(=O)O)cc2)NC(=O)[C@H](Cc2cccc(C(F)(F)F)c2)NC(=O)[C@H](CC(=O)O)NC(=O)[C@H](Cc2ccc(OCC(=O)O)cc2)NC(=O)[C@H](CN2CCOCC2)NC(=O)CSC[C@@H](C(=O)N[C@@H](CCN)C(=O)NCCOCCOCC(=O)N[C@@H](CCC(=O)NCCOCCOCC(=O)NCCCCCCCCCCCCC(=O)O)C(=O)O)NC(=O)[C@H](CO)NC(=O)[C@H](C(C)(C)O)NC(=O)[C@H](CC2CCCCC2)NC(=O)[C@H](CCN)NC1=O` [Example 1173] ({CH2CO}-[Ala(morpholin-4-yl)]Y(Carboxymethyl)D[Phe(3-CF3)][Phe(4-COOH)][Bip]Q[NMeA][dL][Dab][Cha][Val(3-OH)]SC[Dab][AEEA][γGlu][AEEA]-{NH(CH2)12COOH}; thioether N-14), 21.5 nM. The same measure, in the same setting: as for `CC(C)C[C@@H]1NC(=O)[C@H](Cc2c[nH]c3ccccc23)NC(=O)[C@H](CC(=O)O)NC(=O)[C@H](Cc2ccc(OCC(=O)O)cc2)NC(=O)[C@H](Cc2ccncc2)NC(=O)CSC[C@@H](C(=O)N[C@@H](CCCN)C(=O)NCCOCCOCC(=O)NCCCCCCCCCCC(=O)O)NC(=O)[C@H](CO)NC(=O)[C@H](C(C)C)NC(=O)[C@H](CC2CCCCC2)NC(=O)[C@H](CCN)NC(=O)[C@@H](CC(C)C)NC(=O)[C@H](C)N(C)C(=O)[C@H](C(C)C)NC(=O)[C@H](Cc2ccc(-c3ccccc3)cc2)NC1=O` [Example 2142] ({CH2CO}-[4Pal]Y(Carboxymethyl)DWL[Bip]V[NMeA][dL][Dab][Cha]VSC[Orn][AEEA][Aun]-OH; thioether N-14), the figure is 11.6 nM; as for `CC(C)C[C@@H]1NC(=O)[C@H](Cc2c[nH]c3ccccc23)NC(=O)[C@H](CC(=O)O)NC(=O)[C@H](Cc2ccc(C(=O)O)cc2)NC(=O)[C@H](Cc2ccc(OCC(=O)O)cc2)NC(=O)CSC[C@@H](C(=O)NCCOCCOCC(=O)NCCCCCCCCCCC(=O)O)NC(=O)[C@H](CO)NC(=O)[C@H](C(C)C)NC(=O)[C@H](CC2CCCCC2)NC(=O)[C@H](CCN)NC(=O)[C@@H](CC(C)C)NC(=O)[C@H](C)N(C)C(=O)[C@H](C(C)C)NC(=O)[C@H](Cc2ccc(-c3ccccc3)cc2)NC1=O` [Example 2225] ({CH2CO}-Y(Carboxymethyl)[Phe(4-COOH)]DWL[Bip]V[NMeA][dL][Dab][Cha]VSC[AEEA][Aun]-OH; thioether N-14), 9.7 nM.

Regarding `CCC(C)[C@@H]1NC(=O)[C@H](CC(C)C)NC(=O)[C@H](CCN)NC(=O)[C@@H](CC(C)C)NC(=O)[C@H](C)N(C)C(=O)[C@H](C(C)CC)NC(=O)[C@H](Cc2ccc(-c3ccccc3)cc2)NC(=O)[C@H](C(C)CC)NC(=O)[C@H](Cc2c[nH]c3ccccc23)NC(=O)[C@H](CC(=O)O)NC(=O)[C@H](Cc2ccc(OCC(=O)O)cc2)NC(=O)[C@H](C(C)O)NC(=O)CSC[C@@H](C(=O)N[C@@H](CN)C(=O)NCCOCCOCC(=O)NCCCCCCCCCCC(=O)O)NC(=O)[C@H](CO)NC1=O` (stereo partly drawn) [Example 2081] ({CH2CO}-[Thr(3ξ)]Y(Carboxymethyl)DW[Ile(3ξ)][Bip][Ile(3ξ)][NMeA][dL][Dab]L[Ile(3ξ)]SC[Dap][AEEA][Aun]-OH; thioether N-14), the IC50 came to 206 nM.

Regarding `CC(=O)NCCCC[C@@H]1NC(=O)[C@H](Cc2ccc(-c3ccccc3)cc2)NC(=O)[C@H](C(C)C)NC(=O)[C@H](Cc2c[nH]c3ccccc23)NC(=O)[C@H](CC(=O)O)NC(=O)[C@H](Cc2ccc(OCC(=O)O)cc2)NC(=O)[C@H](Cc2ccc(OCC(=O)O)cc2)NC(=O)CSC[C@@H](C(=O)NCCOCCOCC(=O)NCCCCCCCCCCC(=O)O)NC(=O)[C@H](CCCCN)NC(=O)[C@H](C(C)C)NC(=O)[C@H](CC2CCCCC2)NC(=O)[C@H](CCN)NC(=O)[C@@H](CC(C)C)NC(=O)[C@H](C)N(C)C1=O` [Example 2224] ({CH2CO}-Y(Carboxymethyl)Y(Carboxymethyl)DWV[Bip]K(Ac)[NMeA][dL][Dab][Cha]VKC[AEEA][Aun]-OH; thioether N-14), the IC50 amounted to 5.7 nM. Turning to `CC(=O)NCCCC[C@@H]1NC(=O)[C@H](Cc2ccc(-c3ccccc3)cc2)NC(=O)[C@H](C(C)C)NC(=O)[C@H](Cc2c[nH]c3ccccc23)NC(=O)[C@H](CC(=O)O)NC(=O)[C@H](Cc2ccc(OCC(=O)O)cc2)NC(=O)[C@H](CN)NC(=O)CSC[C@@H](C(=O)N[C@@H](CCCN)C(=O)N[C@@H](CO)C(=O)NCCCCCCCCCCCC(=O)O)NC(=O)[C@H](C(C)O)NC(=O)[C@H](C(C)C)NC(=O)[C@H](CC2CCCCC2)NC(=O)[C@H](CCN)NC(=O)[C@@H](CC(C)C)NC(=O)[C@H](C)N(C)C1=O` (stereo partly drawn) [Example 2407] ({CH2CO}-[Dap]Y(Carboxymethyl)DWV[Bip]K(Ac)[NMeA][dL][Dab][Cha]V[Thr(3ξ)]C[Orn]S[12Ado]-OH; thioether N-14), the IC50 was 66.1 nM. Still for that read-out and setting: to `CC(C)C[C@@H]1NC(=O)[C@H](Cc2c[nH]c3ccccc23)NC(=O)[C@H](CC(=O)O)NC(=O)[C@H](Cc2ccc(C(=O)O)cc2)NC(=O)[C@H](Cc2ccc(OCC(=O)O)cc2)NC(=O)CSC[C@@H](C(=O)NCC(=O)N[C@@H](CCCN)C(=O)NCC(=O)NCCCCCCCCCCC(=O)O)NC(=O)[C@H](CO)NC(=O)[C@H](C(C)C)NC(=O)[C@H](CC2CCCCC2)NC(=O)[C@H](CCN)NC(=O)[C@@H](CC(C)C)NC(=O)[C@H](C)N(C)C(=O)[C@H](C(C)C)NC(=O)[C@H](Cc2ccc(-c3ccccc3)cc2)NC1=O` [Example 1030] ({CH2CO}-Y(Carboxymethyl)[Phe(4-COOH)]DWL[Bip]V[NMeA][dL][Dab][Cha]VSCG[Orn]G[Aun]-OH; thioether N-14) belongs 10.6 nM; to `CCC(C)[C@@H]1NC(=O)[C@H](Cc2ccc(-c3ccccc3)cc2)NC(=O)[C@H](C(C)C)NC(=O)[C@H](Cc2c[nH]c3ccccc23)NC(=O)[C@H](CC(=O)O)NC(=O)[C@H](Cc2ccc(OCC(=O)O)cc2)NC(=O)[C@H](Cc2ccncc2)NC(=O)CSC[C@@H](C(=O)N[C@@H](CCCCN)C(=O)NCCOCCOCC(=O)NCCCCCCCCCCC(=O)O)NC(=O)[C@H](C(C)O)NC(=O)[C@H](C(C)C)NC(=O)[C@H](CC2CCCCC2)NC(=O)[C@H](CCN)NC(=O)[C@@H](CC(C)C)NC(=O)[C@H](C)N(C)C1=O` (stereo partly drawn) [Example 2105] ({CH2CO}-[4Pal]Y(Carboxymethyl)DWV[Bip][Ile(3ξ)][NMeA][dL][Dab][Cha]V[Thr(3ξ)]CK[AEEA][Aun]-OH; thioether N-14), 15 nM.

Still in this experiment, the particulars now being: PE-labeled PD-L1-Ig 20 nM final, Jurkat-hPD-1 cells; read-out: Jurkat HPD1 PDL1 IC50.
On to `CC(=O)NCCCC[C@@H]1NC(=O)[C@H](C(C)(C)O)NC(=O)[C@H](CC2CCCCC2)NC(=O)[C@H](CCN)NC(=O)[C@@H](CC(C)C)NC(=O)[C@H](C)N(C)C(=O)[C@H](CCC(N)=O)NC(=O)[C@H](Cc2ccc(-c3ccccc3)cc2)NC(=O)[C@H](Cc2ccc(C(F)(F)F)cc2)NC(=O)[C@H](Cc2cccc(C)c2)NC(=O)[C@H](CC(=O)O)NC(=O)[C@H](Cc2ccc(OCC(=O)O)cc2)NC(=O)[C@H](Cc2ccc(OCC(=O)O)cc2)NC(=O)CSC[C@@H](C(=O)N[C@@H](CCN)C(=O)NCCCCCCCCCCCCC(=O)O)NC1=O` [Example 2621] ({CH2CO}-Y(Carboxymethyl)Y(Carboxymethyl)D[Phe(3-Me)][Phe(4-CF3)][Bip]Q[NMeA][dL][Dab][Cha][Val(3-OH)]K(Ac)C[Dab]-{NH(CH2)12COOH}; thioether N-14), for which the IC50 came to 22.4 nM.

As to `Cc1cccc(C[C@@H]2NC(=O)[C@H](CC(=O)O)NC(=O)[C@H](Cc3ccc(OCC(=O)O)cc3)NC(=O)[C@H](CCN)NC(=O)CSC[C@@H](C(=O)N[C@@H](CCN)C(=O)NCCOCCOCC(=O)NCCOCCOCC(=O)NCCCCCCCCCCC(=O)O)NC(=O)[C@H](Cc3cnc[nH]3)NC(=O)[C@H](C(C)(C)O)NC(=O)[C@H](CC3CCCCC3)NC(=O)[C@H](CCN)NC(=O)[C@@H](CC(C)C)NC(=O)[C@H](C)N(C)C(=O)[C@H](Cc3ccc(OCC(=O)O)cc3)NC(=O)[C@H](Cc3ccc(-c4ccccc4)cc3)NC(=O)[C@H](Cc3ccc(OCC(=O)O)cc3)NC2=O)c1` [Example 2520] ({CH2CO}-[Dab]Y(Carboxymethyl)D[Phe(3-Me)]Y(Carboxymethyl)[Bip]Y(Carboxymethyl)[NMeA][dL][Dab][Cha][Val(3-OH)]HC[Dab][AEEA][AEEA][Aun]-OH; thioether N-14), the IC50 amounted to 8 nM.

The record behind these values is patent US20260070945A1, “MACROCYCLIC IMMUNOMODULATORS” (Bristol-Myers Squibb Company, priority 2022, published 2026).
